Laboratory results: US20240344035A1, “Culture Medium and Culture Method for Human Primary Acute Myeloid Leukemia Cells” (PRECEDO PHARMACEUTICALS CO., LTD, priority 2021, published 2024)

Tests used:
Format in all cases: cell-based
[1] = system: human primary acute myeloid leukemia cells; experiment: Effect of single added factors in Basal Medium on proliferation (CCK-8); conditions: additive at the listed final concentration in Basal Medium; samples A17007, A25104; 5 to 8 days; CCK-8, 450 nm; versus Basal Medium
Experimental: First, the Basal Medium was prepared. The formulation of the Basal Medium was monocyte serum-free medium (purchased from BI, 05-080-1A)+10% (v/v) fetal bovine serum (purchased from ExCell Bio, FND500)+100 μg/mL Primocin (purchased from InvivoGen, 0.2% (v/v), the commercial product concentration is 50 mg/mL).
Different types of growth factors (see Table 1) were added to the Basal Medium to prepare culture mediums for human primary acute myeloid leukemia cells containing different added components.
The culture mediums of different compositions in Table 1 were added into a 96-well plate in a volume of 100 μL/well. Human primary acute myeloid leukemia cells isolated from two cases of human primary acute myeloid leukemia bone marrow samples (numbered A17007, A25104, from the First Affiliated Hospital of Anhui Medical University) according to the above step (2) were inoculated in the 96-well culture plate at a density of 1×10^4 cells/well and cultured at 37° C. and 5% […]. After 5 to 8 days of culture, the cells grew to 70% to 85%, and 10 μL of Cell Counting Kit-8 (CCK-8, purchased from MCE) was added to each well and incubated at 37° C. and 5% CO2 for 2 to 4 hours. The substances in each well were mixed, and the plate was read using a multifunctional microplate reader (Multi-Mode Detection Platform, American Molecular Instruments (Shanghai) Co., Ltd.) at 450 nm. The Basal Medium without addition of any additive was used as a control.

[2] = system: human primary acute myeloid leukemia cells; experiment: Effect of combinations of added factors on proliferation (viable cell counting, FIG. 1); conditions: six bone marrow samples
Experimental: The culture mediums for human primary acute myeloid leukemia cells containing different combinations of added factors were prepared according to the components in Table 2, to investigate the proliferation-promoting effects of different added factor combinations on human primary acute myeloid leukemia cells.
Human primary acute myeloid leukemia cells were obtained from human primary acute myeloid leukemia bone marrow samples (numbered A17151, A17152, A20090, A20101, A21004, A20141) according to the process of step (2)-3 of Example 1. The obtained cell suspension was divided into 11 equal parts, which were then centrifuged at 1500 rpm for 4 minutes. After centrifugation, the cells were resuspended with 200 μL BM or No. 1 to 10 culture medium, respectively, and inoculated into a 48-well plate at a viable cell density of 2×10^4 cells/well (20,000 cells per well). Each well in the 48-well plate was supplemented to a volume of 1 mL with the corresponding culture mediums, and the resultant was fully mixed. After surface disinfection, the plate was placed in a 37° C., 5% CO2 incubator (purchased from Thermo Fisher) for culture.
The cells in the 48-well plate grew to more than 85% and were transferred to a 15 mL centrifuge tube which was then centrifuged at 1500 rpm for 5 minutes. 500 μL of monocyte serum-free medium was added to the centrifuge tube to resuspend the cell pellet. 12 μL of the resuspended cell suspension was fully mixed with 12 μL of trypan blue dye (Sangon Biotech (Shanghai) Co., Ltd.), and then 20 μL of the mixture was added into a cell counting plate (Countstar, specifications: 50 pieces/box). The percentage of viable large cells (cell size>10 μm) were calculated using a cell counter (Countstar, IC1000) (percentage of viable large cells (cell size>10 μm)=number of viable cells/total number of cells*100%). The results obtained from human primary acute myeloid leukemia cells of bone marrow samples A17151, A17152, A20090, A20101, A21004, and A20141 are shown in FIG. 1.

[3] = system: human primary acute myeloid leukemia cells; experiment: Proliferative effects of different concentrations of added factors (ratio to Blank Control, FIGS. 2A-2H); conditions: for concentration at which the cell proliferation effect is most significant: five concentrations tested; for proliferation-promoting effect of the factor: samples A23065, A17112, factor added back to formulation lacking it
Experimental: Human primary acute myeloid leukemia cells were obtained from human primary acute myeloid leukemia bone marrow samples (numbered A23065, A17112) according to the process of step (2)-3 of Example 1. The cells were resuspended with Basal Medium (monocyte serum-free medium+10% (v/v) fetal bovine serum+100 μg/mL Primocin) for later use.
20 μl of cell suspension containing 4×10^4 cells was added to each well, and the suspension was diluted with 1 mL medium of the above Formulations 1-8, respectively.
(§1) When using the culture medium of Formulation 1, the prepared glutamine additive was added respectively to a 48-well plate inoculated with primary cells, with 1 mL per well, and the final concentration of glutamine additive was 0.5 mM, 1 mM, 2 mM, 4 mM, 8 mM, respectively; a well of Blank Control (BC) was set using the culture medium of Formulation 1.
as §1, with “2,” for “1,”, “human SCF” for “glutamine additive”, “was” for “was 0.5 mM,”, “ng/mL, 3 ng/mL, 9 ng/mL, 27 ng/mL, 81 ng/mL,” for “mM, 2 mM, 4 mM, 8 mM,”, “2.” for “1.”
as §1, with “5,” for “1,”, “human FLT3L” for “glutamine additive”, “was” for “was 0.5 mM,”, “ng/mL, 3 ng/mL, 9 ng/mL, 27 ng/mL, 81 ng/mL,” for “mM, 2 mM, 4 mM, 8 mM,”, “5.” for “1.”
When using the culture medium of Formulation 6, the prepared non-essential amino acids were added respectively to a 48-well plate inoculated with primary cells, with 1 mL per well, and the final concentration of non-essential amino acids was 12.5 µM, 25 µM, 50 µM, 100 µM, 200 µM, respectively; a well of Blank Control (BC) was set using the culture medium of Formulation 6.
as §1, with “8,” for “1,”, “human M-CSF” for “glutamine additive”, “was” for “was 0.5 mM,”, “ng/mL, 3 ng/mL, 9 ng/mL, 27 ng/mL, 81 ng/mL,” for “mM, 2 mM, 4 mM, 8 mM,”, “8.” for “1.”
In FIGS. 2A to 2H, the ratio is a ratio of the number of cells of the first passage cultured by using each culture medium to the number of cells of the first passage cultured in the corresponding well of Blank Control.

C[C@@H](N)[C@H]1CC[C@H](C(=O)Nc2ccncc2)CC1 [Y-27632, reference compound]
Level of promoting cell proliferation [1]: −

human interleukin-5 [human IL-5]
Level of promoting cell proliferation [1]: −

human interleukin-6 [human IL-6]
Level of promoting cell proliferation [1]: +
proliferation-promoting effect of the factor (omission from No. 1 medium) [2]: significantly promote the proliferation
concentration at which the cell proliferation effect is most significant [3]: 5.67 ng/mL
proliferation-promoting effect of the factor [3]: significant proliferation-promoting effect

human stem cell factor [human SCF]
Level of promoting cell proliferation [1]: +
proliferation-promoting effect of the factor (omission from No. 1 medium) [2]: significantly promote the proliferation
concentration at which the cell proliferation effect is most significant [3]: 9 ng/mL
proliferation-promoting effect of the factor [3]: significant proliferation-promoting effect

human leukocyte interferon [human IFN-α]
Level of promoting cell proliferation [1]: +

human thrombopoietin [human TPO]
Level of promoting cell proliferation [1]: −

human interleukin-7 [human IL-7]
Level of promoting cell proliferation [1]: +
proliferation-promoting effect of the factor (omission from No. 1 medium) [2]: significantly promote the proliferation
concentration at which the cell proliferation effect is most significant [3]: 17 ng/mL
proliferation-promoting effect of the factor [3]: significant proliferation-promoting effect

B1: human granulocyte colony stimulating factor (protein, UniProt P09919 31-207, looked up)
Granulocyte …: TPLGPASSLPQSFLLKCLEQVRKIQGDGAALQEKLVSECATYKLCHPEELVLLGHSLGIPWAPLSSCPSQALQLAGCLSQLHSGLFLYQGLLQALEGISPELGPTLDTLQLDVADFATTIWQQMEELGMAPALQPTQGAMPAFASAFQRRAGGVLVASHLQSFLEVSYRVLRHLAQP
notes: growth factor additive from Sino Biological
Level of promoting cell proliferation [1]: −

B2: human interleukin-10 (protein, UniProt P22301 19-178, looked up)
Interleukin-10: SPGQGTQSENSCTHFPGNLPNMLRDLRDAFSRVKTFFQMKDQLDNLLLKESLLEDFKGYLGCQALSEMIQFYLEEVMPQAENQDPDIKAHVNSLGENLKTLRLRLRRCHRFLPCENKSKAVEQVKNAFNKLQEKGIYKAMSEFDIFINYIEAYMTMKIRN
notes: cytokine additive from Sino Biological
Level of promoting cell proliferation [1]: −

B3: human interleukin-22 (protein, UniProt Q9GZX6 34-179, looked up)
Interleukin-22: APISSHCRLDKSNFQQPYITNRTFMLAKEASLADNNTDVRLIGEKLFHGVSMSERCYLMKQVLNFTLEEVLFPQSDRFQPYMQEVVPFLARLSNRLSTCHIEGDDLHIQRNVQKLKDTVKKLGESGEIKAIGELDLLFMSLRNACI
notes: cytokine additive from Peprotech
Level of promoting cell proliferation [1]: −

B4: human interleukin-4 (protein, UniProt P05112 25-153, looked up)
Interleukin-4: HKCDITLQEIIKTLNSLTEQKTLCTELTVTDIFAASKNTTEKETFCRAATVLRQFYSHHEKDTRCLGATAQQFHRHKQLIRFLKRLDRNLWGLAGLNSCPVKEANQSTLENFLERLKTIMREKYSKCSS
notes: as for B2
Level of promoting cell proliferation [1]: −

B5: recombinant human macrophage colony-stimulating factor (protein, UniProt P09603 33-554, looked up)
Macrophage colony-stimulating …: EEVSEYCSHMIGSGHLQSLQRLIDSQMETSCQITFEFVDQEQLKDPVCYLKKAFLLVQDIMEDTMRFRDNTPNAIAIVQLQELSLRLKSCFTKDYEEHDKACVRTFYETPLQLLEKVKNVFNETKNLLDKDWNIFSKNCNNSFAECSSQDVVTKPDCNCLYPKAIPSSDPASVSPHQPLAPSMAPVAGLTWEDSEGTEGSSLLPGEQPLHTVDPGSAKQRPPRSTCQSFEPPETPVVKDSTIGGSPQPRPSVGAFNPGMEDILDSAMGTNWVPEEASGEASEIPVPQGTELSPSRPGGGSMQTEPARPSNFLSASSPLPASAKGQQPADVTGTALPRVGPVRPTGQDWNHTPQKTDHPSALLRDPPEPGSPRISSLRPQGLSNPSTLSAQPQLSRSHSSGSVLPLGELEGRRSTRDRRSPAEPEGGPASEGAARPLPRFNSVPLTDTGHERQSEGSFSPQLQESVFHLLVPSVILVLLAVGGLLFYRWRRRSHQEPQRADSPLEQPEGSPLTQDDRQVELPV
notes: as for B1
Level of promoting cell proliferation [1]: +
proliferation-promoting effect of the factor (omission from No. 1 medium) [2]: significantly promote the proliferation
concentration at which the cell proliferation effect is most significant [3]: 27 ng/mL
proliferation-promoting effect of the factor [3]: significant proliferation-promoting effect

B6: recombinant human FLT3 Ligand (protein, UniProt P49771 27-235, looked up)
Fms-related tyrosine kinase 3 …: TQDCSFQHSPISSDFAVKIRELSDYLLQDYPVTVASNLQDEELCGGLWRLVLAQRWMERLKTVAGSKMQGLLERVNTEIHFVTKCAFQPPPSCLRFVQTNISRLLQETSEQLVALKPWITRQNFSRCLELQCQPDSSTLPPPWSPRPLEATAPTAPQPPLLLLLLLPVGLLLLAAAWCLHWQRTRRRTPRPGEQVPPVPSPQDLLLVEH
notes: as for B1
Level of promoting cell proliferation [1]: +
proliferation-promoting effect of the factor (omission from No. 1 medium) [2]: significantly promote the proliferation
concentration at which the cell proliferation effect is most significant [3]: 27 ng/mL
proliferation-promoting effect of the factor [3]: significant proliferation-promoting effect

B7: human interleukin-11 (protein, UniProt P20809 22-199, looked up)
Interleukin-11: PGPPPGPPRVSPDPRAELDSTVLLTRSLLADTRQLAAQLRDKFPADGDHNLDSLPTLAMSAGALGALQLPGVLTRLRADLLSYLRHVQWLRRAGGSSLKTLEPELGTLQARLDRLLRRLQLLMSRLALPQPPPDPPAPPLAPPSSAWGGIRAAHAILGGLHLTLDWAVRGLLLLKTRL
notes: as for B2
Level of promoting cell proliferation [1]: −
